Experimental data from ChEMBL document CHEMBL4800722, “Data for DCP probe BI 605906” (2021).
Calls of active or inactive are those of the source. The rule behind the calls is not given here.

Legend:
[1] = target: Receptor-interacting serine/threonine-protein kinase 2 (Homo sapiens) (UniProt O43353); settings: Compound concentration 1.0 uM
[2] = target: Tyrosine-protein kinase JAK2 (Homo sapiens) (UniProt O60674); settings: Compound concentration 1.0 uM
[3] = target: Serine/threonine-protein kinase ULK2 (Homo sapiens) (UniProt Q8IYT8); settings: Compound concentration 1.0 uM
[4] = target: Dual specificity mitogen-activated protein kinase kinase 2 (Homo sapiens) (UniProt P36507); settings: Compound concentration 1.0 uM
[5] = target: Histamine H3 receptor (Homo sapiens) (UniProt Q9Y5N1); settings: Compound concentration 10.0 uM
[6] = target: Glycogen synthase kinase-3 beta (Homo sapiens) (UniProt P49841); assay: GSK3B DUNDEE kinase screen (BI); settings: Compound concentration 10.0 uM
[7] = target: Cyclin-dependent kinase 5 (Homo sapiens) (UniProt Q00535); assay: CDK5 (INACTIVE) Invitrogen Lab (UK) kinase screen (BI); settings: Compound concentration 1.0 uM
[8] = target: Inhibitor of nuclear factor kappa-B kinase subunit beta (Homo sapiens, UniProt O14920); assay: Biochemical assay
[9] = target: Serine/threonine-protein kinase ICK (Homo sapiens) (UniProt Q9UPZ9); settings: Compound concentration 1.0 uM
[10] = target: Myosin light chain kinase 2, skeletal/cardiac muscle (Homo sapiens) (UniProt Q9H1R3); settings: Compound concentration 1.0 uM
[11] = target: Protein kinase C beta type (Homo sapiens) (UniProt P05771)
[12] = target: RAC-gamma serine/threonine-protein kinase (Homo sapiens) (UniProt Q9Y243); settings: Compound concentration 1.0 uM
[13] = target: ALK tyrosine kinase receptor (Homo sapiens) (UniProt Q9UM73); assay: ALK Invitrogen Lab (UK) kinase screen (BI)
[14] = target: 5-hydroxytryptamine receptor 3A (Homo sapiens) (UniProt P46098); settings: Compound concentration 10.0 uM
[15] = target: Serine/threonine-protein kinase 38 (Homo sapiens) (UniProt Q15208); assay: STK38 (NDR) Invitrogen Lab (UK) kinase screen (BI); settings: Compound concentration 1.0 uM
[16] = target: MAP kinase-interacting serine/threonine-protein kinase 2 (Homo sapiens) (UniProt Q9HBH9); assay: MNK2 ALPHA DUNDEE kinase screen (BI); settings: Compound concentration 10.0 uM
[17] = target: Casein kinase II subunit alpha' (Homo sapiens) (UniProt P19784); settings: Compound concentration 1.0 uM
[18] = target: Phosphatidylinositol 4-phosphate 3-kinase C2 domain-containing subunit beta (Homo sapiens) (UniProt O00750); settings: Compound concentration 1.0 uM
[19] = target: Serine/threonine-protein kinase 3 (Homo sapiens) (UniProt Q13188); assay: STK3 Invitrogen Lab (UK) kinase screen (BI); settings: Compound concentration 1.0 uM
[20] = species: Homo sapiens; assay: PIK3CA/PIK3R3 Invitrogen Lab (UK) kinase screen (BI); settings: Compound concentration 1.0 uM
[21] = target: Histamine H2 receptor (Homo sapiens) (UniProt P25021); settings: Compound concentration 10.0 uM
[22] = target: Dual specificity mitogen-activated protein kinase kinase 4 (Homo sapiens) (UniProt P45985); assay: MAP2K4 Invitrogen Lab (UK) kinase screen (BI); settings: Compound concentration 1.0 uM
[23] = target: Eukaryotic elongation factor 2 kinase (Homo sapiens) (UniProt O00418); settings: Compound concentration 1.0 uM
[24] = target: Platelet-derived growth factor receptor beta (Homo sapiens) (UniProt P09619)
[25] = target: Serine/threonine-protein kinase ULK3 (Homo sapiens) (UniProt Q6PHR2); settings: Compound concentration 1.0 uM
[26] = target: Kappa-type opioid receptor (Homo sapiens) (UniProt P41145); settings: Compound concentration 10.0 uM
[27] = target: Casein kinase II subunit alpha (Homo sapiens) (UniProt P68400)
[28] = target: Cyclin-dependent kinase 2/cyclin E1 (Homo sapiens) (UniProt P24864+P24941); settings: Compound concentration 1.0 uM
[29] = target: Ribosomal protein S6 kinase alpha-5 (Homo sapiens) (UniProt O75582); assay: RPS6KA5 Invitrogen Lab (UK) kinase screen (BI); settings: Compound concentration 1.0 uM
[30] = target: 3-phosphoinositide-dependent protein kinase 1 (Homo sapiens) (UniProt O15530); settings: Compound concentration 10.0 uM
[31] = target: Mitogen-activated protein kinase kinase kinase 7 (Homo sapiens) (UniProt O43318); settings: Compound concentration 1.0 uM
[32] = target: Adenosine receptor A1 (Homo sapiens) (UniProt P30542); assay: A1/HU Eurofins SafetyScreen44 (BI); settings: Compound concentration 100.0 uM
[33] = target: Serine/threonine-protein kinase PAK 3 (Homo sapiens) (UniProt O75914); settings: Compound concentration 1.0 uM
[34] = target: Protein kinase C iota type (Homo sapiens) (UniProt P41743); settings: Compound concentration 1.0 uM
[35] = target: Insulin-like growth factor 1 receptor (Homo sapiens) (UniProt P08069)
[36] = target: Receptor-interacting serine/threonine-protein kinase 3 (Homo sapiens) (UniProt Q9Y572); settings: Compound concentration 1.0 uM
[37] = target: 5-hydroxytryptamine receptor 6 (Homo sapiens) (UniProt P50406); settings: Compound concentration 10.0 uM
[38] = target: Fibroblast growth factor receptor 3 (Homo sapiens) (UniProt P22607); settings: Compound concentration 1.0 uM
[39] = target: Cyclin-dependent kinase 1/cyclin B (Homo sapiens) (UniProt P06493+P14635+Q8WWL7+O95067)
[40] = target: Interleukin-1 receptor-associated kinase 1 (Homo sapiens) (UniProt P51617); settings: Compound concentration 1.0 uM
[41] = target: D(3) dopamine receptor (Homo sapiens) (UniProt P35462); settings: Compound concentration 10.0 uM

Platelet-derived growth factor receptor beta (Homo sapiens), sequence (P09619 whole entry): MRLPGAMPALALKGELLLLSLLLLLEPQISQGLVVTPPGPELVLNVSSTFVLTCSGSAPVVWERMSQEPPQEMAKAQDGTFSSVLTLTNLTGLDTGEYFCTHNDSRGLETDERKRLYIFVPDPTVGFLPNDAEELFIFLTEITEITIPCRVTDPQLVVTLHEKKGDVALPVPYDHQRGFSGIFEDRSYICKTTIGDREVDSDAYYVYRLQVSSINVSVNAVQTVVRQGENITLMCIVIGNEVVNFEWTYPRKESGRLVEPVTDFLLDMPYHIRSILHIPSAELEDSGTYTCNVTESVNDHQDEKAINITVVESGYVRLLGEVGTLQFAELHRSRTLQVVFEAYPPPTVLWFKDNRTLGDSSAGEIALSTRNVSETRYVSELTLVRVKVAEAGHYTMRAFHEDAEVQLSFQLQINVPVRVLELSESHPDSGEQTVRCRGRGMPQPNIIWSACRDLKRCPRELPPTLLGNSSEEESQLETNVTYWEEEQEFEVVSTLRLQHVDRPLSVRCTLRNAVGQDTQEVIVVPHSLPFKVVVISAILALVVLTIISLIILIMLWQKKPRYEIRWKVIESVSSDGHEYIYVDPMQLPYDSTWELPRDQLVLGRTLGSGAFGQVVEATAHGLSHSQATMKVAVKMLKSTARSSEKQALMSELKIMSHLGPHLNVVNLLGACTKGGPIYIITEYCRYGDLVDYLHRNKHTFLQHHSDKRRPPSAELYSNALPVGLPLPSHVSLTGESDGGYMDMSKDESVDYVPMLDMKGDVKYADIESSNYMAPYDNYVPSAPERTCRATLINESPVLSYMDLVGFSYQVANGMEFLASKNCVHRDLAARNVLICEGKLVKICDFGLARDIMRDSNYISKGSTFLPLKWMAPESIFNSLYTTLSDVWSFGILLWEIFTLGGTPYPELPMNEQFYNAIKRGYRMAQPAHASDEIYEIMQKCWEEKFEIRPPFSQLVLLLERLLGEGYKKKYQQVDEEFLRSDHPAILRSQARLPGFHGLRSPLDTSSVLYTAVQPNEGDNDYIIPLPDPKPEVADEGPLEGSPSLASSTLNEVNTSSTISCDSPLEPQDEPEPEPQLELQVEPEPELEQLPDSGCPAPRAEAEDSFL
Protein kinase C beta type (Homo sapiens), sequence (P05771 2-671 limits assumed): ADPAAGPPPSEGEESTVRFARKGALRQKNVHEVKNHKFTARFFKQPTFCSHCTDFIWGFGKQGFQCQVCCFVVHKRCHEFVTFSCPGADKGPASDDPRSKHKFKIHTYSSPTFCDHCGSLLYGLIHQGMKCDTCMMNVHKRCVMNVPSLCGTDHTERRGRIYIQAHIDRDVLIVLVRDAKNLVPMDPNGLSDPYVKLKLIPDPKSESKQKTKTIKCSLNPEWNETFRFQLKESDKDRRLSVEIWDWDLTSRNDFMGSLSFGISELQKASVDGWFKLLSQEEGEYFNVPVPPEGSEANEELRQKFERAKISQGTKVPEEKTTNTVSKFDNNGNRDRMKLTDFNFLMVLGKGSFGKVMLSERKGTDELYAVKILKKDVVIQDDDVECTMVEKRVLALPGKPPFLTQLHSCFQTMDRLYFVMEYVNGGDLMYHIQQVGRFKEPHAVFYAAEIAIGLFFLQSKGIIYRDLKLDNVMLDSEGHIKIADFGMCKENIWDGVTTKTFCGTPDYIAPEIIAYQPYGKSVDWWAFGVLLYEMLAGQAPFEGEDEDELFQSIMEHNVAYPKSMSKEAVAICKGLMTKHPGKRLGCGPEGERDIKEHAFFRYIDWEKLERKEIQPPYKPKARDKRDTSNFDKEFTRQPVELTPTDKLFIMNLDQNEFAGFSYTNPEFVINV
ALK tyrosine kinase receptor (Homo sapiens), sequence (Q9UM73 19-1620 limits assumed): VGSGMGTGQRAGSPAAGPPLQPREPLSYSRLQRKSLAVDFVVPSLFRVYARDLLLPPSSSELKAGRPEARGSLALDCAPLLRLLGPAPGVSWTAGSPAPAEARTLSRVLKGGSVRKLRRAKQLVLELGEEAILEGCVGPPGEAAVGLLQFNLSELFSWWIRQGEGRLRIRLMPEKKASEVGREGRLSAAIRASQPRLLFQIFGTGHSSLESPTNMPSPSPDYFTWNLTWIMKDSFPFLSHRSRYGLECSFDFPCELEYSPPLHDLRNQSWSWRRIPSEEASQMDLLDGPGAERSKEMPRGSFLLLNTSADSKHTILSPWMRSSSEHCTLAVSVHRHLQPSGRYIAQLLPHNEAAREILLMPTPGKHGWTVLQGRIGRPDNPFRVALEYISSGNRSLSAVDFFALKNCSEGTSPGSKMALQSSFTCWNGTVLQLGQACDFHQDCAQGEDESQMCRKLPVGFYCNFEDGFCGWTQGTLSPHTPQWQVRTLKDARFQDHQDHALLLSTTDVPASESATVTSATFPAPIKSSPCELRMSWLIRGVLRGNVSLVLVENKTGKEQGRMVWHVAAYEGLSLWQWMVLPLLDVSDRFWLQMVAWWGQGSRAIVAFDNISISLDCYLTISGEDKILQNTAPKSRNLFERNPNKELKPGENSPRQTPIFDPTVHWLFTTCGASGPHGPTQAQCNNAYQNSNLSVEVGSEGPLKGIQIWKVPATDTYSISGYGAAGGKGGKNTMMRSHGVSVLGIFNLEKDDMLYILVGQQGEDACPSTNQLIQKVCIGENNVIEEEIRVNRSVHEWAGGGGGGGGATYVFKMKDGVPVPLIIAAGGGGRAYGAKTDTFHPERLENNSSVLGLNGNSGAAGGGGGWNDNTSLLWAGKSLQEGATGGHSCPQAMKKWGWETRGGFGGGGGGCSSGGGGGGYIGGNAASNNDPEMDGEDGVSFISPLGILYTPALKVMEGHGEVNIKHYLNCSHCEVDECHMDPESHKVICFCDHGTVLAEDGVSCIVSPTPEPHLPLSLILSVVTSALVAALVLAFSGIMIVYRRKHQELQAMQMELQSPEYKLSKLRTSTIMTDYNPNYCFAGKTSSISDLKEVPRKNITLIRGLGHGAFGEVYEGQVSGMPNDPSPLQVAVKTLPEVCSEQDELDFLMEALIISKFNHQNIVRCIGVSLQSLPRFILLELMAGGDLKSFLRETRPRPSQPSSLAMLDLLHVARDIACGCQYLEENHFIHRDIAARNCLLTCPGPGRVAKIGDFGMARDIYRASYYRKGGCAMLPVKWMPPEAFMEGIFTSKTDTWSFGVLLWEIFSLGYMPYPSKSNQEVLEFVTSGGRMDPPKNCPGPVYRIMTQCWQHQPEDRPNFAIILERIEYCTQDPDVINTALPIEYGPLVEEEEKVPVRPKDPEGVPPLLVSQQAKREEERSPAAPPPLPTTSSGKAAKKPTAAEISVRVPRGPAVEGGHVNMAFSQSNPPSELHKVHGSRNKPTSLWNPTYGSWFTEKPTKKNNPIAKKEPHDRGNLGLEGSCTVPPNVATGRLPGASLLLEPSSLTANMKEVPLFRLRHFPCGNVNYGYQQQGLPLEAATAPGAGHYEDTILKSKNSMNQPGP
Insulin-like growth factor 1 receptor (Homo sapiens), sequence (P08069 31-736 limits assumed): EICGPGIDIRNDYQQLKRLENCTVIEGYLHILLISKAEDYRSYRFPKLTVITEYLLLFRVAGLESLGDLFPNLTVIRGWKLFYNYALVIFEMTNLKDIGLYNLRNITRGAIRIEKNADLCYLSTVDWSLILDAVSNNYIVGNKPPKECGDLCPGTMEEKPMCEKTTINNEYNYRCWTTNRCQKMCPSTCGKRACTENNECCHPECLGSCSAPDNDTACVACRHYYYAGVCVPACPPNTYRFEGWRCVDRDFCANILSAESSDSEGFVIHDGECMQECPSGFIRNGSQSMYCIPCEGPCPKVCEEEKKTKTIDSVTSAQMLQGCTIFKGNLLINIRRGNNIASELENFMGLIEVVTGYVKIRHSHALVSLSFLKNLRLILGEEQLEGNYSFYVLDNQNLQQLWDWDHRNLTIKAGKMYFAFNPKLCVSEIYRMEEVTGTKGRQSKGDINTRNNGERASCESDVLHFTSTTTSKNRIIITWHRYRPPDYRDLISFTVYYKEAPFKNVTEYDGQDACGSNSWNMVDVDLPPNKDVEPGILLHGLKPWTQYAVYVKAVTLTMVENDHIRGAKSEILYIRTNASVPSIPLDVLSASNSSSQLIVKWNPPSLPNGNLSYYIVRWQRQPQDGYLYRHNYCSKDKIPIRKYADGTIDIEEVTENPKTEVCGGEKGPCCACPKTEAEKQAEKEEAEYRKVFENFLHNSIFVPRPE
Insulin-like growth factor 1 receptor (Homo sapiens), sequence (P08069 741-1367 limits assumed): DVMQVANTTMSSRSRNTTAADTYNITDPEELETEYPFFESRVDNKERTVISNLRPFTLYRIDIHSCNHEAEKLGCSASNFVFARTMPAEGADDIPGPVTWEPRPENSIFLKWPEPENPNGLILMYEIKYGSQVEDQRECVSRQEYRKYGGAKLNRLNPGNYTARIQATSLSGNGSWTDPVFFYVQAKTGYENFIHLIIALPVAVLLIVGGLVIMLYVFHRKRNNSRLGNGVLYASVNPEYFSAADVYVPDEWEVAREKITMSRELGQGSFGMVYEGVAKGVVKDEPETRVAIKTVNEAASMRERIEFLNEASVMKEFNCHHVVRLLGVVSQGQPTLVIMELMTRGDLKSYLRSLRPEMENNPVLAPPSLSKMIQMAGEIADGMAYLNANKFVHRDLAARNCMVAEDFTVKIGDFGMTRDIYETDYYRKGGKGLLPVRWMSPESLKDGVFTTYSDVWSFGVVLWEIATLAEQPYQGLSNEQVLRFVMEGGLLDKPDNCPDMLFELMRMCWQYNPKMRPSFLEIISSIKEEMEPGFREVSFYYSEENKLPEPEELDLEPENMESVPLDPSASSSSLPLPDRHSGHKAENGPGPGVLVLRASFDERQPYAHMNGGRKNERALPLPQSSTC
Casein kinase II subunit alpha (Homo sapiens), sequence (P68400 whole entry, looked up): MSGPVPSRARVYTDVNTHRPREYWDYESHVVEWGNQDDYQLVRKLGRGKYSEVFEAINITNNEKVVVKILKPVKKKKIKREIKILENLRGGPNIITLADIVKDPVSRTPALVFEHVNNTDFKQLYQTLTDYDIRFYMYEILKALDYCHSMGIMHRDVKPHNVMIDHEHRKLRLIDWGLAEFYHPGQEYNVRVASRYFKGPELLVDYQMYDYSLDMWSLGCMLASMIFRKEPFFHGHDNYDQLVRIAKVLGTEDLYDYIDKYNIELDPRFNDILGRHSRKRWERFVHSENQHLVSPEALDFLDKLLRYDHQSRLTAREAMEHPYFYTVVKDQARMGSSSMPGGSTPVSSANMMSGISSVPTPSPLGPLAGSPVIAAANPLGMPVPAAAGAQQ

Q: `CCC(F)(F)c1cc(N2CCC(S(C)(=O)=O)CC2)nc2sc(C(N)=O)c(N)c12` [BI-605906] was tested. Which residual activity [1] did it give?
A: The residual activity was 94%.

Q: And the residual activity [2]?
A: Its residual activity is 94%.

Q: What about the residual activity [3] of the same compound?
A: Its residual activity is 93%.

Q: What about the residual activity [4] of the same compound?
A: Its residual activity is 91%.

Q: What about the inhibition [5] of the same compound?
A: The inhibition was 0.2%.

Q: And the residual activity [6]?
A: Its residual activity is 74.4%.

Q: What about the residual activity [7] of the same compound?
A: Its residual activity is 83%.

Q: And the IC50 [8]?
A: The IC50 was 49 nM (active).

Q: And the residual activity [9]?
A: The residual activity was 96%.

Q: And the residual activity [10]?
A: The residual activity was 98%.

Q: What about the residual activity ([11]; Compound concentration 1.0 uM) of the same compound?
A: The residual activity was 89%.

Q: What about the residual activity ([11]; Compound concentration 10.0 uM) of the same compound?
A: The residual activity was 102%.

Q: And the residual activity [12]?
A: The residual activity was 91%.

Q: What about the residual activity ([13]; Compound concentration 1.0 uM) of the same compound?
A: Its residual activity is 80%.

Q: And the residual activity ([13]; Compound concentration 10.0 uM)?
A: The residual activity was 74%.

Q: What about the inhibition [14] of the same compound?
A: The inhibition was -5.46%.

Q: What about the residual activity [15] of the same compound?
A: The residual activity was 83%.

Q: And the residual activity [16]?
A: Its residual activity is 67.2%.

Q: And the residual activity [17]?
A: The residual activity was 87%.

Q: What about the residual activity [18] of the same compound?
A: The residual activity was 101%.

Q: What about the residual activity [19] of the same compound?
A: The residual activity was 103%.

Q: What about the residual activity [20] of the same compound?
A: The residual activity was 103%.

Q: And the residual activity [21]?
A: The residual activity was 94%.

Q: What about the residual activity [22] of the same compound?
A: The residual activity was 79%.

Q: And the residual activity [23]?
A: Its residual activity is 98%.

Q: What about the residual activity ([24]; Compound concentration 1.0 uM) of the same compound?
A: The residual activity was 89%.

Q: And the residual activity ([24]; Compound concentration 10.0 uM)?
A: The residual activity was 87%.

Q: What about the residual activity [25] of the same compound?
A: Its residual activity is 95%.

Q: And the inhibition [26]?
A: The inhibition was 8.09%.

Q: And the residual activity ([27]; Compound concentration 1.0 uM)?
A: The residual activity was 92%.

Q: And the residual activity ([27]; Compound concentration 10.0 uM)?
A: Its residual activity is 107%.

Q: And the residual activity [28]?
A: The residual activity was 94%.

Q: And the residual activity [29]?
A: Its residual activity is 102%.

Q: And the residual activity [30]?
A: The residual activity was 89.1%.

Q: And the residual activity [31]?
A: Its residual activity is 101%.

Q: What about the residual activity [32] of the same compound?
A: Its residual activity is 77%.

Q: And the residual activity [33]?
A: Its residual activity is 101%.

Q: And the residual activity [34]?
A: The residual activity was 105%.

Q: And the residual activity ([35]; Compound concentration 1.0 uM)?
A: Its residual activity is 95%.

Q: And the residual activity ([35]; Compound concentration 10.0 uM)?
A: The residual activity was 99%.

Q: And the residual activity [36]?
A: The residual activity was 100%.

Q: What about the inhibition [37] of the same compound?
A: Its inhibition is 8.77%.

Q: What about the residual activity [38] of the same compound?
A: Its residual activity is 96%.

Q: What about the residual activity ([39]; Compound concentration 1.0 uM) of the same compound?
A: The residual activity was 92%.

Q: What about the residual activity ([39]; Compound concentration 10.0 uM) of the same compound?
A: The residual activity was 94%.

Q: What about the residual activity [40] of the same compound?
A: The residual activity was 89%.

Q: And the residual activity [41]?
A: The residual activity was 105%.
